Assay results as given in publication PMC7979765, “trans-Translation inhibitors bind to a novel site on the ribosome and clear Neisseria gonorrhoeae in vivo” (Nature Communications, 2021).
Like-named read-outs stand apart in the source and are kept apart here.

Assay: Pharmacokinetic analyses in mice (PO suspension, IV, SC)
Format: in vivo, mouse
Details: in vivo
Protocol: Female CD-1 mice as above were fasted for 2 h prior, and 4 h after dosing. […] […], 3 mice from each group were euthanized by CO2 inhalation, blood was collected by cardiac puncture into K2EDTA collection tubes, and protein was precipitated and analysed by LC/MS-MS for plasma concentrations of MBX-4132. Data were analysed using WinNonLin.
[…] At 0.083, 0.5, 1, 4, 8 and 24 h post dose, blood was collected from 3 mice/group by tail vein or facial bleed into K2EDTA collection tubes, and protein was precipitated and analysed by LC/MS-MS for plasma concentrations of MBX-4132. Sampling was performed serially, with each mouse contributing sample at all time points. Data were analysed using WinNonLin.

[1] = female, CD-1, mouse, sc, 10 mg/kg, SC (10 mg/kg), mean of 3 animals, read-out: MBX 4132 Concentrations in Mouse Plasma, Mean
[2] = female, CD-1, mouse, sc, 10 mg/kg, SC (10 mg/kg), individual animals, read-out: MBX 4132 Concentrations in Mouse Plasma
[3] = female, CD-1, mouse, sc, 25 mg/kg, SC (25 mg/kg), individual animals, read-out: MBX 4132 Concentrations in Mouse Plasma
[4] = female, CD-1, mouse, sc, 25 mg/kg, SC (25 mg/kg), mean of 3 animals, read-out: MBX 4132 Concentrations in Mouse Plasma, Mean
[5] = mouse, iv, 10 mg/kg, IV (10 mg/kg), individual animals, read-out: MBX 4132 Concentrations in Mouse Plasma
[6] = mouse, iv, 10 mg/kg, IV (10 mg/kg), mean of 3 animals, read-out: MBX 4132 Concentrations in Mouse Plasma, Mean
[7] = mouse, po, 10 mg/kg, PO (10 mg/kg), mean of 3 animals, read-out: MBX 4132 Concentrations in Mouse Plasma, Mean
[8] = mouse, po, 10 mg/kg, PO (10 mg/kg), individual animals, read-out: MBX 4132 Concentrations in Mouse Plasma

## O=C(Nc1nnc(-c2ccc(F)cc2)o1)N1CCc2ccccc2C1 [MBX 4132]
female, CD-1, mouse, po, 10 mg/kg, PO (10 mg/kg susp.), mean of 3 animals, read-out: MBX 4132 Concentrations in Mouse Plasma, Mean
  concentration at 8 h: 9920 ng/mL
female, CD-1, mouse, po, 10 mg/kg, PO (10 mg/kg susp.), individual animals, read-out: MBX 4132 Concentrations in Mouse Plasma
  concentration at 24 h: < 62.5 ng/mL
female, CD-1, mouse, po, 10 mg/kg, PO (10 mg/kg), mean of 3 animals, read-out: MBX 4132 Concentrations in Mouse Plasma, Mean
  concentration at 0.083 h: 1260 ng/mL
[1]
  concentration at 0.083 h: 786 ng/mL
  concentration at 0.5 h: 3780 ng/mL
  concentration at 1 h: 3350 ng/mL
  concentration at 4 h: 2850 ng/mL
  concentration at 8 h: 2430 ng/mL
  concentration at 24 h: 608 ng/mL
[2]
  concentration at 0.5 h: 3430 ng/mL
  concentration at 1 h: 3480 ng/mL
  concentration at 4 h: 3280 ng/mL
  concentration at 8 h: 2000 ng/mL
  concentration at 24 h: 599 ng/mL
[3]
  concentration at 0.083 h: 1170 ng/mL
  concentration at 1 h: 3020 ng/mL
  concentration at 4 h: 2380 ng/mL
  concentration at 8 h: 3420 ng/mL
  concentration at 24 h: 1540 ng/mL
[4]
  concentration at 0.083 h: 1510 ng/mL
  concentration at 0.5 h: 5010 ng/mL
  concentration at 1 h: 4580 ng/mL
  concentration at 4 h: 3010 ng/mL
  concentration at 8 h: 4040 ng/mL
  concentration at 24 h: 1800 ng/mL
[5]
  concentration at 0.083 h: 74600 ng/mL
  concentration at 0.5 h: 30600 ng/mL
  concentration at 1 h: 21000 ng/mL
  concentration at 4 h: 7790 ng/mL
  concentration at 8 h: 3920 ng/mL
[6]
  concentration at 0.083 h: 66300 ng/mL
  concentration at 0.5 h: 32900 ng/mL
  concentration at 1 h: 21400 ng/mL
  concentration at 4 h: 7590 ng/mL
  concentration at 8 h: 3730 ng/mL
[7]
  concentration at 0.5 h: 1360 ng/mL
  concentration at 1 h: 1440 ng/mL
  concentration at 4 h: 2170 ng/mL
  concentration at 8 h: 5110 ng/mL
  concentration at 24 h: 58 ng/mL
[8]
  concentration at 1 h: 1090 ng/mL
  concentration at 4 h: 1680 ng/mL
  concentration at 8 h: 4350 ng/mL
